# Laboratory results published in patent US12638451B2, “Genetic amplified tumor homing nanoparticles and compositions and methods thereof” (priority 2019, dated 2026).
# Test system: xenograft models of prostate cancer
# Experiment: In vivo antitumor efficacy
# Set-up: species or system mice
# Settings: Dox 22 μg/mL or Tf-Dox containing 5 μg/mL Dox i.v.; Ad.DD3 intratumoral 7 days before; 14 days observation
# Description: To study the in vivo enhancement effect of the genetic probes on the antitumor efficacy of Tf-Dox, we first established xenograft models of prostate cancer by subcutaneous injection of LNCap tumor cells (about 1×10^6) in Matrigel (BD Biosciences; 1/1) into the left shoulder of BALB/c male mice. […] During 14 days of observation, we monitored the tumor volumes according to the following formula: V=a×b^2/2 where a and b were the longest and shortest diameters of the tumor, respectively, measured using a Vernier caliper. […] The reduced injection dose, in turn, is promising to lower down the distribution and biotoxicity of drugs towards the normal tissues. […] Thus, the optimized therapy outcome of the gene-nanoparticle synergetic strategy is resulted from the enhanced tumor homing ability of the nanoparticles leading to higher DOX accumulation in the tumor cells rather than the antitumor effect of the gene probes.
# Xenograft models of prostate cancer were established by subcutaneous injection of LNCap tumor cells (about 1×10^6) in Matrigel (BD Biosciences; 1/1) into the left shoulder of BALB/c male mice. […] Changes in tumor volume and body weight were monitored at several scheduled time-points. The volume of the tumor was calculated according to the following formula: V=a×b^2/2 where a and b were the longest and shortest diameters of tumor, respectively, measured using a Vernier calliper. […]
substance,measurement,value
Tf-Dox,Tumor volume / tumor inhibition,an increase of tumor volume was visualized
